According to PubChem BioAssay (NCI):
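Cultured in 96-well plates, cells were exposed to test compound for 48 hours across five concentrations. TGI marks complete inhibition of growth.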

Legend:
Experiment in all cases: DTP human tumour cell line panel, 48 h
A498 renal = test system: A498 renal
CCRF-CEM leukemia = test system: CCRF-CEM leukemia
DU-145 prostate = test system: DU-145 prostate
EKVX NSCLC = test system: EKVX NSCLC
HCC-2998 colon = test system: HCC-2998 colon
HCT-15 colon = test system: HCT-15 colon
HOP-62 NSCLC = test system: HOP-62 NSCLC
K-562 leukemia = test system: K-562 leukemia
LOX IMVI melanoma = test system: LOX IMVI melanoma
M14 melanoma = test system: M14 melanoma
MALME-3M melanoma = test system: MALME-3M melanoma
MCF7 breast = test system: MCF7 breast
NCI-H23 lung = test system: NCI-H23 lung
NCI-H522 lung = test system: NCI-H522 lung
PC-3 prostate = test system: PC-3 prostate
SF-539 CNS = test system: SF-539 CNS
TK-10 renal = test system: TK-10 renal

Row | SMILES | TGI (A498 renal) | TGI (CCRF-CEM leukemia) | TGI (DU-145 prostate) | TGI (EKVX NSCLC) | TGI (HCC-2998 colon) | TGI (HCT-15 colon) | TGI (HOP-62 NSCLC) | TGI (K-562 leukemia) | TGI (LOX IMVI melanoma) | TGI (M14 melanoma) | TGI (MALME-3M melanoma) | TGI (MCF7 breast) | TGI (NCI-H23 lung) | TGI (NCI-H522 lung) | TGI (PC-3 prostate) | TGI (SF-539 CNS) | TGI (TK-10 renal)
1 | C=CC(=O)NCCC(=O)OCn1cc(F)c(=O)[nH]c1=O | > 100 µM | > 100 µM | > 100 µM | > 100 µM | > 100 µM | > 100 µM | > 100 µM | > 100 µM | > 100 µM | > 100 µM | > 100 µM | > 100 µM | > 100 µM | > 100 µM | > 100 µM | > 100 µM | > 100 µM
2 | CC(C)(C)C(=O)/C=C(\OB(F)F)C(C)(C)C | > 100 µM | > 100 µM | > 100 µM | > 100 µM | > 100 µM | > 100 µM | > 100 µM | > 100 µM | > 100 µM | > 100 µM | > 100 µM | > 100 µM | > 100 µM | > 100 µM | > 100 µM | > 100 µM | > 100 µM
3 | CC[C@@H]1/C=C/C=C/C[C@H](C)[C@@H](O)[C@@H](C)C(=O)[C@H](C)[C@@H](O)[C@H](C)C(=O)[C@H](C)[C@@H](O)[C@H](C)/C=C/C(=O)O[C@H]2[C@@H](C)[C@@H](CC1)O[C@@]1(CC[C@@H](C)[C@@H](CC(C)O)O1)[C@@H]2C (stereo not given in full) | 11 µM | > 14.4 µM | > 11.8 µM | 7.44 µM | 8.52 µM | > 25 µM | > 25 µM | > 25 µM | > 25 µM | > 14.7 µM | > 24 µM | 7.49 µM | > 25 µM | 11.4 µM | 12.3 µM | 24.6 µM | > 23.6 µM
4 | NS(=O)(=O)c1ccc(NC(=S)NC(=O)Nc2ccc(Cl)c(Cl)c2)cc1 | 7.51 µM | 70.7 µM | 33.7 µM | 51 µM | 30.9 µM | 29.8 µM | 36.8 µM | > 82.6 µM | 19.1 µM | 20.9 µM | 33.5 µM | 30.2 µM | 33.7 µM | 37.3 µM | 30 µM | 39.7 µM | 81.5 µM
5 | N#Cc1cc2c(cc1C#N)SCCSCCCSCCS2 | > 92.1 µM | > 75 µM | > 100 µM | > 100 µM | > 100 µM | 34.9 µM | 4.95 µM | > 100 µM | 22.7 µM | > 100 µM | > 65.1 µM | > 100 µM | 38.3 µM | > 85.7 µM | > 82.8 µM | 43.2 µM | 14.3 µM
6 | Cc1cn([C@@H]2O[C@H](CO[Si](C)(C)C(C)(C)C)[C@]3(O[C@H]3C(=O)NO)[C@H]2O[Si](C)(C)C(C)(C)C)c(=O)[nH]c1=O | 3.33 µM | 2.76 µM | 3.67 µM | 3.59 µM | 2.97 µM | 3.62 µM | 3.52 µM | 6.48 µM | 3.1 µM | 3.56 µM | 5.07 µM | 3.15 µM | 3.66 µM | 3.12 µM | 5.66 µM | 2.83 µM | 5.35 µM
7 | CC1=C(O)C(=O)C=C2C1=CC=C1[C@@]2(C)CC[C@@]2(C)C3C[C@@H](C)C(=O)[C@@H](O)[C@]3(C)CC[C@]12C (stereo not given in full) | 12.4 µM | 1.87 µM | 3.38 µM | 4.12 µM | 9.65 µM | 3.73 µM | 11.6 µM | 5.17 µM | 3.02 µM | 3.26 µM | 3.97 µM | 11 µM | 3.6 µM | 2.34 µM | 4.23 µM | 4.33 µM | 3.82 µM
8 | COC(=O)NC(=O)NC(Cc1ccccc1)NC(=O)OCc1ccccc1 (stereo not given) | 91.5 µM | > 100 µM | > 100 µM | > 100 µM | > 100 µM | > 100 µM | > 100 µM | > 100 µM | > 100 µM | > 100 µM | > 100 µM | > 100 µM | > 100 µM | > 100 µM | > 100 µM | 71.4 µM | > 100 µM
9 | COC1=C(C(c2cc(OC)c(OC)c(OC)c2)c2cc3c(cc2OC)OCO3)C(=O)OC1 (stereo not given) | > 71.9 µM | > 68.8 µM | 70.5 µM | > 81.6 µM | > 100 µM | > 100 µM | > 84 µM | > 100 µM | > 100 µM | 63.6 µM | > 73.2 µM | > 82.3 µM | > 80 µM | > 100 µM | > 70.4 µM | 41.2 µM | > 73.2 µM
10 | Cc1cn2cc(-c3cccs3)nc2s1 | > 100 µM | > 100 µM | > 100 µM | > 100 µM | > 100 µM | > 100 µM | > 100 µM | > 100 µM | > 100 µM | > 100 µM | > 100 µM | > 100 µM | > 100 µM | > 100 µM | > 100 µM | > 100 µM | > 100 µM
